Assay results: US20020151534A1, “Antithrombotic compounds” (priority 2001, published 2002)

These compounds were tested against T1, human factor Xa (Homo sapiens, UniProt P00742) (assay: Inhibition of factor Xa, enzyme-kinetic measurement with chromogenic substrate). Details: substrate Chromozym X 200 μMol/l, pNA release at 405 nm, pH 8.0, 37° C.
T1 construct: released from the colourless chromogenic substrate by human factor Xa; purchased Roche
Type: biochemical
Method: Enzyme-kinetic measurement with chromogenic substrate. The quantity of anp-nitroaniline (pNA) released from the colourless chromogenic substrate by human factor Xa is determined photometrically at 405 nm. It is proportional to the activity of the enzyme used. The inhibition of the enzyme activity by the test substance I (in relation to the solvent control) is determined at various concentrations of test substance and from this the IC50 is calculated, as the concentration which inhibits the factor Xa used by 50%.
Tris(hydroxymethyl)-aminomethane buffer (100 mmol) and sodium chloride (150 mMol), pH 8.0
Factor Xa (Roche), spec. activity: 10 U/0.5 ml, final concentration: 0.175 U/ml for each reaction mixture
Substrate Chromozym X (Roche), final concentration: 200 μMol/l for each reaction mixture
10 μl of a 23.5-times concentrated starting solution of the test substance or solvent (control), 175 μl of tris(hydroxymethyl)-aminomethane buffer and 25 μl of a 1.65 U/ml Factor Xa working solution are incubated for 10 minutes at 37° C. After the addition of 25 μl of Chromozym X working solution ([…]) the sample is measured in a photometer (SpectraMax 250) at 405 nm for 150 seconds at 37° C.
1. Determining the maximum increase (deltaOD/minutes) over 3 measuring points.
2. Determining the % inhibition based on the solvent control.
3. Plotting a dosage/activity curve (% inhibition vs substance concentration).
4. Determining the IC50 by interpolating the X value (substance concentration) of the dosage/activity curve at Y=50% inhibition.

T1 sequence (P00742 235-488 limits assumed): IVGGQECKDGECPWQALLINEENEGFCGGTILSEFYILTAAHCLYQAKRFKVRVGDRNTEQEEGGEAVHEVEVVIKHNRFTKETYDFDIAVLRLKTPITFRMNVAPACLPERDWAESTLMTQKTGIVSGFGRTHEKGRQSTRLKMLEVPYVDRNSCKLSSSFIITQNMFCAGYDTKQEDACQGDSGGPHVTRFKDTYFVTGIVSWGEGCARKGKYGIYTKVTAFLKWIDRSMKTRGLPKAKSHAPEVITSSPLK
T1 sequence (P00742 41-179 partner limits assumed): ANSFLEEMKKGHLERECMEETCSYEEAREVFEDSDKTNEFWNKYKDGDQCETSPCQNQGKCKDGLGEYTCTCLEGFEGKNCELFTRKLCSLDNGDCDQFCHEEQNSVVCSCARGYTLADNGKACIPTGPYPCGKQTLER

`N=C(N)c1ccc(O)c(CNC(=O)c2ccc(C(=O)N3CCCC3)c(Cl)c2)c1` [(4)] was tested. Which IC50 did it give?
The IC50 was 0.01 µM.

For `CCOC(=O)CCC(=O)N(c1ccc(C(=O)NCc2cc(C(=N)N)ccc2O)cc1C)C1CCCC1` [(3)], which IC50 is on record?
Its IC50 is 0.075 µM.

For `Cc1cc(NCCc2cc(C(=N)N)ccc2O)ccc1C(=O)N1CCCC1` [(1)], which IC50 is on record?
The IC50 was 0.084 µM.

Which IC50 does the source give for `Cc1cc(C(=O)NCc2cc(C(=N)N)ccc2O)ccc1C(=O)N1CCCC1` [(2)] here?
Its IC50 is 0.014 µM.

Which IC50 does the source give for `Cc1cc(C(=O)NC(CC(=O)O)c2cccc(C(=N)N)c2)ccc1C(=O)N1CCCC1` (centres unmarked) [(5)] here?
The IC50 was 0.031 µM.
